Laboratory results reported in PubChem BioAssay (NCI).
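Five compound concentrations were applied to cells in 96-well plates for 48 hours; endpoints were derived by simple linear interpolation of the resulting dose-response curve. At the GI50, growth is halved. At the TGI there is no net growth.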

Experiments:
Assay in all cases: NCI anticancer screen, dose series, 48 h
[1] = tested on: HL-60(TB) leukemia
[2] = tested on: NCI-H460 lung
[3] = tested on: SNB-75 CNS
[4] = tested on: HOP-18 NSCLC
[5] = tested on: HCC-2998 colon
[6] = tested on: SK-MEL-2 melanoma
[7] = tested on: NCI-H522 lung
[8] = tested on: DMS 273 small cell lung
[9] = tested on: NCI/ADR-RES ovarian
[10] = tested on: PC-3 prostate

Structure (SMILES) | TGI [1] [µM] | TGI [2] [µM] | TGI [3] [µM] | TGI [4] [µM] | TGI [5] [µM] | TGI [6] [µM] | TGI [7] [µM] | TGI [8] [µM] | GI50 [1] [µM] | GI50 [2] [µM] | GI50 [3] [µM] | GI50 [4] [µM] | GI50 [5] [µM] | GI50 [6] [µM] | GI50 [7] [µM] | TGI [9] [µM] | TGI [10] [µM]
Cn1c(=O)nc2n(-c3cccc(Br)c3)c3ccccc3nc-2c1=O | 9.76 | 12.2 | 22.2 | 19.4 | 9.59 | 18.2 | 20.1 | 14.7 | – | – | – | – | – | – | – | – | –
O=c1cc2ccccc2nn1Cc1cccc(Cl)c1 | – | > 100 | > 100 | > 100 | > 100 | > 100 | – | > 100 | – | – | – | – | – | – | – | – | –
N/C(=C\c1ccc(OCc2ccccc2)c(OCc2ccccc2)c1[N+](=O)[O-])C(=O)O | > 100 | – | > 100 | > 100 | > 100 | > 100 | > 100 | > 100 | – | – | – | – | – | – | – | – | –
Cc1ccccc1C(=O)c1ccccc1O | > 100 | > 100 | > 100 | > 100 | > 100 | > 100 | – | > 100 | – | – | – | – | – | – | – | – | –
CC(=O)[CH-]C(=O)c1ccccc1.CC(=O)[CH-]C(=O)c1ccccc1.CC(C)CCCC(C)[C@H]1CCC2[C@@H]3CC=C4C[C@@H]([O-])CC[C@]4(C)C3CC[C@@]21C.CC[O-].[Ti+4] (some centres undefined) | > 100 | > 100 | > 100 | > 100 | > 100 | 80.1 | 71.2 | – | 42.3 | 44.8 | 28.5 | 76 | 62.6 | 22.4 | 26.3 | – | –
COC(=O)C(=O)OC1(C(C)=O)CC2(c3ccccc3)OC1(c1ccccc1)c1ccccc12 (centres undefined) | > 100 | 36.2 | 61.5 | 84.5 | 31.4 | – | 34.7 | 30 | – | – | – | – | – | – | – | – | –
CCC/C(=N/NC(=O)C(N)=O)C(CC)C(=O)CCC(=O)N(Cc1ccccc1)Cc1ccccc1 (centres undefined) | > 100 | > 100 | > 100 | > 100 | > 100 | > 100 | > 100 | > 100 | – | – | – | – | – | – | – | – | –
CC1(CO)OC(n2cc(C(=O)NC(=O)OCc3ccccc3)c(=O)[nH]c2=O)CC1O (centres undefined) | > 100 | > 100 | > 100 | > 100 | – | – | > 100 | > 100 | – | – | – | – | – | – | – | – | –
CCOC(=O)N1CCc2cc(OC)c(OC)c3c2c1cc1cc(OC)c(OC)cc13 | > 100 | 28.5 | 8.4 | > 100 | 55.6 | > 51.8 | 4.3 | > 45.2 | – | – | – | – | – | – | – | 5.37 | > 100
O=[N+]([O-])c1nccn1CC(O)CN1CC1 (centres undefined) | 73.1 | > 100 | > 100 | > 100 | – | > 100 | 50.9 | > 100 | – | – | – | – | – | – | – | – | –
C[S+](C)CCOC(=O)C(=[N+]=[N-])c1ccc([N+](=O)[O-])cc1 | > 100 | > 100 | > 100 | > 100 | > 100 | > 100 | > 100 | > 100 | – | – | – | – | – | – | – | – | –
COC(=O)/C([Se]c1c(C)cc(C)cc1C)=C(\[Se]c1c(C)cc(C)cc1C)C(=O)OC | > 100 | > 100 | > 100 | > 100 | > 100 | > 100 | > 100 | > 100 | – | – | – | – | – | – | – | – | –
N#CC(C(=O)CCC(=O)C(C#N)c1ccccc1)c1ccccc1 (centres undefined) | > 100 | > 100 | > 100 | > 100 | > 100 | > 100 | > 100 | > 100 | – | – | – | – | – | – | – | – | –
